Measured values taken from PubChem BioAssay AID242 (DTP/NCI, 2004).
Several values for one entry are separate records, joined by “and”; a condition that tells them apart may be missing. Equal values may be shown once. Inconclusive results and toxic doses are left out.

Test system: BDF1 mice, Lymphoma 8 ip, survival T/C
Test: NCI In Vivo Anticancer Drug Screen. Data for tumor model Lymphoma 8 (intraperitoneal) in B6D2F1 (BDF1) mice
Conditions: higher = longer survival
Experimental: The antitumor activity of compounds was measured in mice bearing transplantable tumors. Survival or tumor size were measured and the results are expressed as the measurement made in the treated group (T) divided by the measurement made in the vehicle treated control group (C). The tumor model used in this assay is Lymphoma 8 (intraperitoneal) in B6D2F1 (BDF1) mice

[1] = endpoint: survival time, mean or median, dose: 2.5 mg/kg/injection, schedule: Q01DX010 (ip), vehicle: saline
[2] = endpoint: survival time, mean or median, dose: 5.0 mg/kg/injection, schedule: Q01DX010 (ip), vehicle: saline
[3] = endpoint: survival time, mean or median, dose: 10.0 mg/kg/injection, schedule: Q01DX010 (ip), vehicle: saline
[4] = endpoint: survival time, mean or median, dose: 20.0 mg/kg/injection, schedule: Q01DX010 (ip), vehicle: saline
[5] = endpoint: survival time, mean or median, dose: 0.25 mg/kg/injection, schedule: Q01DX010 (ip), vehicle: saline
[6] = endpoint: survival time, mean or median, dose: 0.5 mg/kg/injection, schedule: Q01DX010 (ip), vehicle: saline
[7] = endpoint: survival time, mean or median, dose: 1.0 mg/kg/injection, schedule: Q01DX010 (ip), vehicle: saline
[8] = endpoint: survival time, mean or median, dose: 3.13 mg/kg/injection, schedule: Q01DX010 (ip), vehicle: saline
[9] = endpoint: survival time, mean or median, dose: 12.5 mg/kg/injection, schedule: Q01DX010 (ip), vehicle: saline
[10] = endpoint: survival time, mean or median, dose: 25.0 mg/kg/injection, schedule: Q01DX010 (ip), vehicle: saline
[11] = endpoint: survival time, mean or median, dose: 8.0 mg/kg/injection, schedule: Q01DX010 (ip), vehicle: saline
[12] = endpoint: survival time, mean or median, dose: 16.0 mg/kg/injection, schedule: Q01DX010 (ip), vehicle: saline
[13] = endpoint: survival time, mean or median, dose: 2.0 mg/kg/injection, schedule: Q01DX010 (ip), vehicle: saline
[14] = endpoint: survival time, mean or median, dose: 4.0 mg/kg/injection, schedule: Q01DX010 (ip), vehicle: saline
[15] = endpoint: survival time, mean or median, dose: 50.0 mg/kg/injection, schedule: Q01DX010 (ip), vehicle: saline
[16] = endpoint: survival time, mean or median, dose: 100.0 mg/kg/injection, schedule: Q01DX010 (ip), vehicle: saline
[17] = endpoint: survival time, mean or median, dose: 50.0 mg/kg/injection, schedule: Q01DX008 (ip), vehicle: saline
[18] = endpoint: survival time, mean or median, dose: 6.25 mg/kg/injection, schedule: Q01DX010 (ip), vehicle: saline

## S=P(N1CCOCC1)(N1CC1)N1CC1
[1]
  T/C: 100 % of control and 113 % of control
[2]
  T/C: 104 % of control and 109 % of control
[3]
  T/C: 113 % of control
[4]
  T/C: 86 % of control and 122 % of control

## CS(=O)(=O)OCCN(CCOS(C)(=O)=O)c1ccc(N=O)cc1
[5]
  T/C: 121 % of control
[6]
  T/C: 110 % of control
endpoint: survival time, mean or median, dose: 63.0 micrograms/kg/injection, schedule: Q01DX010 (ip), vehicle: saline
  T/C: 113 % of control
endpoint: survival time, mean or median, dose: 125.0 micrograms/kg/injection, schedule: Q01DX010 (ip), vehicle: saline
  T/C: 120 % of control
endpoint: survival time, mean or median, dose: 500.0 micrograms/kg/injection, schedule: Q01DX010 (ip), vehicle: saline
  T/C: 123 % of control

## C1CN1c1nc(N2CC2)nc(N2CC2)n1
endpoint: survival time, mean or median, dose: 0.13 mg/kg/injection, schedule: Q01DX010 (ip), vehicle: saline
  T/C: 91 % of control and 100 % of control
[5]
  T/C: 100 % of control and 104 % of control
[6]
  T/C: 166 % of control
[7]
  T/C: 87 % of control

## N=[N+]=CC(=O)OCC(N)C(=O)O (stereo not given)
[8]
  T/C: 116 % of control
[9]
  T/C: 150 % of control
[10]
  T/C: 87 % of control and 91 % of control

## CS(=O)(=O)OCCCl
endpoint: survival time, mean or median, dose: 9.4 mg/kg/injection, schedule: Q01DX010 (ip), vehicle: saline
  T/C: 107 % of control
endpoint: survival time, mean or median, dose: 18.8 mg/kg/injection, schedule: Q01DX010 (ip), vehicle: saline
  T/C: 91 % of control and 96 % of control
endpoint: survival time, mean or median, dose: 37.5 mg/kg/injection, schedule: Q01DX010 (ip), vehicle: saline
  T/C: 91 % of control and 100 % of control
endpoint: survival time, mean or median, dose: 75.0 mg/kg/injection, schedule: Q01DX010 (ip), vehicle: saline
  T/C: 91 % of control and 96 % of control

## Cc1cc2nc3c(=O)[nH]c(=O)nc-3n(CC(O)C(O)C(O)C(O)CO)c2cc1C (stereo not given)
endpoint: survival time, mean or median, dose: 50.0 mg/kg/injection, schedule: Q01DX015 (ip), vehicle: carboxymethylcellulose (CMC)
  T/C: 90 % of control
endpoint: survival time, mean or median, dose: 200.0 mg/kg/injection, schedule: Q01DX015 (ip), vehicle: carboxymethylcellulose (CMC)
  T/C: 87 % of control

## CC(=O)OCC1OC(n2cnc3c(=S)nc(N)[nH]c32)C(OC(C)=O)C1OC(C)=O (stereo not given)
endpoint: survival time, mean or median, dose: 12.5 mg/kg/injection, schedule: Q01DX015 (ip), vehicle: other
  T/C: 106 % of control
endpoint: survival time, mean or median, dose: 25.0 mg/kg/injection, schedule: Q01DX015 (ip), vehicle: other
  T/C: 107 % of control
endpoint: survival time, mean or median, dose: 50.0 mg/kg/injection, schedule: Q01DX015 (ip), vehicle: other
  T/C: 97 % of control

## Nc1nc(SCc2ccccc2)c2[nH]cnc2n1
[11]
  T/C: 91 % of control and 107 % of control
[12]
  T/C: 100 % of control and 103 % of control
endpoint: survival time, mean or median, dose: 32.0 mg/kg/injection, schedule: Q01DX010 (ip), vehicle: saline
  T/C: 100 % of control and 103 % of control
endpoint: survival time, mean or median, dose: 64.0 mg/kg/injection, schedule: Q01DX010 (ip), vehicle: saline
  T/C: 91 % of control

## CC(CCC(C)OS(C)(=O)=O)OS(C)(=O)=O (stereo not given)
[13]
  T/C: 92 % of control and 100 % of control
[14]
  T/C: 103 % of control and 104 % of control
[11]
  T/C: 103 % of control and 104 % of control
[12]
  T/C: 100 % of control and 116 % of control

## CN(Cc1cnc2nc(N)nc(N)c2n1)c1ccc(C(=O)N[C@@H](CCC(=O)O)C(=O)O)cc1
endpoint: median survival time, dose: 1.0 mg/kg/injection, schedule: Q01DX009 (ip), vehicle: sodium bicarbonate
  T/C: 118 % of control
endpoint: median survival time, dose: 2.0 mg/kg/injection, schedule: Q01DX009 (ip), vehicle: sodium bicarbonate
  T/C: 93 % of control

## CC(=O)NC1=C(N2CC2)C(=O)C(NC(C)=O)=C(N2CC2)C1=O
endpoint: survival time, mean or median, dose: 0.5 mg/kg/injection, schedule: Q01DX015 (ip), vehicle: carboxymethylcellulose (CMC)
  T/C: 174 % of control
endpoint: survival time, mean or median, dose: 1.0 mg/kg/injection, schedule: Q01DX015 (ip), vehicle: carboxymethylcellulose (CMC)
  T/C: 150 % of control

## CSc1ncnc2nc[nH]c12
[10]
  T/C: 103 % of control
[15]
  T/C: 103 % of control
[16]
  T/C: 100 % of control

## Clc1ncnc2nc[nH]c12
endpoint: survival time, mean or median, dose: 7.5 mg/kg/injection, schedule: Q01DX010 (ip), vehicle: saline
  T/C: 100 % of control
endpoint: survival time, mean or median, dose: 15.0 mg/kg/injection, schedule: Q01DX010 (ip), vehicle: saline
  T/C: 100 % of control
endpoint: survival time, mean or median, dose: 30.0 mg/kg/injection, schedule: Q01DX010 (ip), vehicle: saline
  T/C: 110 % of control
endpoint: survival time, mean or median, dose: 60.0 mg/kg/injection, schedule: Q01DX010 (ip), vehicle: saline
  T/C: 100 % of control

## CN(N=O)C(=O)NC(C=O)C(O)C(O)C(O)CO (stereo not given)
[9]
  T/C: 96 % of control
endpoint: survival time, mean or median, dose: 25.0 mg/kg/injection, schedule: Q01DX008 (ip), vehicle: saline
  T/C: 115 % of control
[10]
  T/C: 100 % of control
[17]
  T/C: 111 % of control
[15]
  T/C: 121 % of control
endpoint: survival time, mean or median, dose: 100.0 mg/kg/injection, schedule: Q01DX008 (ip), vehicle: saline
  T/C: 115 % of control
[16]
  T/C: 121 % of control

## CN(C)c1ccc(/C=C/c2ccnc3ccccc23)cc1
[2]
  T/C: 104 % of control and 118 % of control
[3]
  T/C: 86 % of control and 109 % of control
[4]
  T/C: 86 % of control and 104 % of control
endpoint: survival time, mean or median, dose: 40.0 mg/kg/injection, schedule: Q01DX010 (ip), vehicle: saline
  T/C: 95 % of control and 100 % of control

## CCN(CC)CCNc1ccc(C)c2sc3ccccc3c(=O)c12
[15]
  T/C: 122 % of control
[16]
  T/C: 109 % of control

## Nc1nc(F)nc2c1ncn2C1OC(CO)C(O)C1O (stereo not given)
endpoint: survival time, mean or median, dose: 0.75 mg/kg/injection, schedule: Q01DX015 (ip), vehicle: saline
  T/C: 88 % of control

## CCCCOP(=S)(N1CC1)N1CC1
[6]
  T/C: 100 % of control
[7]
  T/C: 103 % of control
[13]
  T/C: 106 % of control
[14]
  T/C: 103 % of control

## COc1cc([C@@H]2c3cc4c(cc3[C@H](O)[C@H]3COC(=O)[C@@H]23)OCO4)cc(OC)c1OC
endpoint: survival time, mean or median, dose: 10.0 mg/kg/injection, schedule: Q01DX015 (ip), vehicle: carboxymethylcellulose (CMC)
  T/C: 98 % of control
endpoint: survival time, mean or median, dose: 20.0 mg/kg/injection, schedule: Q01DX015 (ip), vehicle: carboxymethylcellulose (CMC)
  T/C: 119 % of control

## O=C(O)c1[nH]c(=O)[nH]c(=O)c1F
endpoint: survival time, mean or median, dose: 12.0 mg/kg/injection, schedule: Q01DX015 (ip), vehicle: carboxymethylcellulose (CMC)
  T/C: 99 % of control
endpoint: survival time, mean or median, dose: 12.5 mg/kg/injection, schedule: Q01DX015 (ip), vehicle: carboxymethylcellulose (CMC)
  T/C: 98 % of control

## O=C(O)CCCc1ccc(N(CCCl)CCCl)cc1
[8]
  T/C: 100 % of control and 104 % of control
[18]
  T/C: 104 % of control and 116 % of control
[9]
  T/C: 104 % of control

## CC(=O)Nc1ccc2nc3ccc(NC(C)=O)cc3[n+](-c3ccccc3)c2c1
[10]
  T/C: 107 % of control
[15]
  T/C: 89 % of control
[16]
  T/C: 92 % of control

## CCCNc1ncnc2[nH]ncc12
[8]
  T/C: 104 % of control (2×) and 105 % of control
[18]
  T/C: 105 % of control and 106 % of control
[9]
  T/C: 90 % of control and 100 % of control and 114 % of control

## N[C@H](C(=O)O)[C@@H]1CC(Cl)=NO1
endpoint: median survival time, dose: 0.38 mg/kg/injection, schedule: Q01DX009 (ip), vehicle: saline
  T/C: 92 % of control
endpoint: median survival time, dose: 0.75 mg/kg/injection, schedule: Q01DX009 (ip), vehicle: saline
  T/C: 78 % of control
endpoint: median survival time, dose: 1.5 mg/kg/injection, schedule: Q01DX009 (ip), vehicle: saline
  T/C: 69 % of control
endpoint: median survival time, dose: 3.0 mg/kg/injection, schedule: Q01DX009 (ip), vehicle: saline
  T/C: 74 % of control

## CCOC=Nc1c(N)ncnc1Cl
endpoint: survival time, mean or median, dose: 62.5 mg/kg/injection, schedule: Q01DX015 (ip), vehicle: olive oil, sesame oil, peanut oil
  T/C: 107 % of control
endpoint: survival time, mean or median, dose: 125.0 mg/kg/injection, schedule: Q01DX015 (ip), vehicle: olive oil, sesame oil, peanut oil
  T/C: 93 % of control
endpoint: survival time, mean or median, dose: 250.0 mg/kg/injection, schedule: Q01DX015 (ip), vehicle: olive oil, sesame oil, peanut oil
  T/C: 101 % of control
endpoint: survival time, mean or median, dose: 500.0 mg/kg/injection, schedule: Q01DX015 (ip), vehicle: olive oil, sesame oil, peanut oil
  T/C: 101 % of control

## N=C(N)SCc1c2ccccc2c(CSC(=N)N)c2ccccc12
[1]
  T/C: 106 % of control and 121 % of control
[2]
  T/C: 113 % of control
[4]
  T/C: 113 % of control and 114 % of control

## NC(Cc1c[nH]c2ccc(N(CCCl)CCCl)cc12)C(=O)O (stereo not given)
[6]
  T/C: 92 % of control
[7]
  T/C: 103 % of control
[14]
  T/C: 103 % of control

## C[C@H]1C(=O)O[C@@H]2CCN3CC=C(COC(=O)[C@](C)(O)[C@@]1(C)O)[C@H]23
[8]
  T/C: 116 % of control
[18]
  T/C: 100 % of control
[9]
  T/C: 104 % of control
[10]
  T/C: 104 % of control

## NC(=O)/C=C/NC(=O)/C=N\O
[17]
  T/C: 92 % of control
endpoint: survival time, mean or median, dose: 200.0 mg/kg/injection, schedule: Q01DX008 (ip), vehicle: saline
  T/C: 88 % of control
